Format in all cases: in vivo
The subject of experiment [1] is 3rd-instar larvae of Spodoptera exigua Hübner. Kind of experiment: Joint toxicity of I-72 + emamectin benzoate, leaf-disk dipping, Example 9, Table 9. Particulars: Spodoptera exigua, cabbage leaf-disk dipping, 72 h, A = compound I-72, B = emamectin benzoate, read-out: LC50. The source says:
Test subject: 3rd-instar larvae of Spodoptera exigua Hübner, a sensitive strain reared indoors.
Experimental method: the dipping method was adopted. The cabbage leaves cultivated in the greenhouse were taken, the surface wax layer was removed, and leaf disks with a diameter of 3 cm were made with a puncher. The leaf disks were dipped in the prepared pesticide solution for 10 s, and then put into a 9-cm-diameter Petri dish lined with filter paper. After natural air-drying in the shade, the standard test insects were introduced, with 10 insects placed in each dish and 3 replicates performed. The treated test insects were placed in an observation room under certain conditions. The reaction of the test insects was regularly observed, and the number of dead and live insects was investigated 72 h later.
The test conditions, the preparation of the pesticide solution and the evaluation method were the same as those in Example 1.

For experiment [2], the system named is adult Tetranychus urticae Koch. Kind of experiment: Joint toxicity of I-72 + cyetpyrafen, Example 85, Table 85. Particulars: Tetranychus urticae; A = compound I72, B = cyetpyrafen; potted-seedling spraying; 72 hours; read-out: LC50. The protocol: Test target: adult Tetranychus urticae Koch, a sensitive strain reared indoors.
(§1) Preparation of the pesticide solution: according to different test requirements, the test samples were accurately weighed respectively with an electronic analytical balance. The technical pesticides were dissolved in acetone, and then diluted with 0.1% Tween 80 water into a series of pesticide solutions with a certain concentration gradient according to the experimental design dosage.
Experimental method: the activity of the mixture against the adult Tetranychus urticae Koch was determined by adopting the potted-seedling spraying method. First, the adult Tetranychus urticae Koch of uniform size were transferred onto the leaves of kidney bean seedlings at the stage when the first pair of true leaves was fully expanded. After the adult mites had stabilized, the base number was counted. Then, the uniform spraying was performed with the pesticide solution in the order from low to high dose according to the experimental design, with 1.5 mL for each seedling and 3 replicates for each treatment. […]
The treated test materials were placed in an observation room, and the temperature, humidity and illumination of the observation room could be adjusted as needed. […] Then, the co-toxicity coefficient of each ratio was calculated using the Sun Y-P method to evaluate the mixing effect (the same as in Example 1).

Experiment [3] concerns 3rd-instar larvae of Ostrinia furnacalis Guenee. Description: Joint toxicity of I-72 + organophosphorus insecticides, corn stalk dipping, Example 21, Table 21. Conditions: 3rd-instar larvae, corn stalk dipping, 48 h, A = compound I-72, B = acephate, read-out: LC50. The protocol: Test target: 3rd-instar larvae of Ostrinia furnacalis Guenee, a sensitive strain reared indoors.
as §1
Experimental method: first, fresh tender corn stalks cultivated in the greenhouse were selected, cut into small sections of 3 cm, and dipped in the prepared pesticide solution for 10 s in the order from low dosage to high dosage according to the experimental design. After natural air-drying in the shade, they were placed in a 9-cm-diameter Petri dish with filter paper, and uniform and healthy test insects were introduced, with 10 insects for each treatment and 3 replicates for each treatment. In addition, a blank control was set up.
The treated test materials were placed in an observation room, and the temperature, humidity and illumination of the observation room could be adjusted as needed. The number of dead and live insects was investigated 48 hours later. The corrected mortality rate was calculated using the Abbott's formula, and statistical analysis was performed with the DPS data processing software to obtain the toxicity regression equation, LC50 value and 95% confidence limit of each single test pesticide and each mixture of different ratios. Then, the co-toxicity coefficient of each ratio was calculated using the Sun Y-P method to evaluate the mixing effect (the same as in Example 1).

Experiment [4] deals with second-instar larvae of Meloidogyne incognita. Description: In vitro joint toxicity of I-72 + fluopyram, 24-well plate, Example 32, Table 32. Conditions: A = I-72, B = fluopyram, 24-well plate, 25° C., 48 hours, read-out: LC50. The protocol: Test target: second-instar larvae of Meloidogyne incognita, a sensitive strain reared in a greenhouse.
as §1
Experimental method: the prepared pesticide solutions were added to a 24-well plate in the order from low dosage to high dosage according to the experimental design. In each well of each treatment, 50 nematodes were placed. Each drug had 5 concentrations set, with 3 replicates. After the treatment, the 24-well plate was placed in a constant temperature incubator at 25° C. In addition, a blank control group was set up. The number of dead and live insects was investigated 48 hours later. […] Then, the co-toxicity coefficient of each ratio was calculated using the Sun Y-P method to evaluate the mixing effect (the same as in Example 1).

Experiment [5] concerns early 2nd-instar grubs of Holotrichia diomphalia Bates. Kind of experiment: whole plant or invertebrate. Particulars: Holotrichia diomphalia; A = compound I-72, B = tebuconazole; insect-dipping; 72 hours; read-out: LC50. The protocol: Test target: early 2nd-instar grubs of Holotrichia diomphalia Bates.
Test conditions: temperature: 24-26° C., humidity: RH 60%, and illumination: L:D=14:10
as §1
Experimental method: the activity against Holotrichia diomphalia Bates was determined by the insect-dipping method. The early 2nd-instar grubs of Holotrichia diomphalia Bates were selected. The target insects were dipped into the pesticide solution for 10 s and then taken out. Excess pesticide solution was absorbed with filter paper. […] A treatment without the pesticide was set as the blank control.
The test insects were transferred to a multi-well culture plate with fresh potato pieces and placed in an observation room, and the temperature, humidity and illumination of the observation room could be adjusted as needed. The number of dead and live insects was investigated 72 hours later. The corrected mortality rate was calculated using the Abbott's formula, and statistical analysis was performed with the DPS data processing software to obtain the toxicity regression equation and LC50 value of each single test pesticide and each mixture of different ratios.

Experiment [6] relates to Bemisia tabaci (Gennadius) nymphs. Description: Joint toxicity of I-72 + spiromesifen, Example 27, Table 27. Conditions: Bemisia tabaci; A = compound I-72, B = spiromesifen; cotton leaf-disk spraying; 96 hours; read-out: LC50. On the procedure:
Test target: Bemisia tabaci (Gennadius) nymphs, a sensitive strain reared indoors.
as §1
Experimental method: first, cotton leaves with neat and consistent Bemisia tabaci (Gennadius) nymphs were selected and made into leaf disks, with about 20 insects on each leaf disk. Then, they were evenly sprayed with the pesticide solution in the order from low dosage to high dosage according to the experimental design, with 1.5 mL for each leaf and 3 replicates for each treatment. In addition, a blank control was set up.
The treated test materials were placed in an observation room, and the temperature, humidity and illumination of the observation room could be adjusted as needed. The number of dead and live insects was investigated 96 hours later. […] Then, the co-toxicity coefficient of each ratio was calculated using the Sun Y-P method to evaluate the mixing effect (the same as in Example 1).

Structures are written as SMILES. Values after ≈ are worked out from the molar mass of the structure shown.

In the case of `CN(C(=O)c1ccc2c(c1)OC(F)(F)O2)c1cccc(C(=O)Nc2c(Br)cc(C(F)(C(F)(F)F)C(F)(F)F)cc2OC(F)F)c1F` [Compound I-72], the LC50 (in general, the concentration that kills 50% of the test population) in experiment [1] was determined as 0.241 µg/mL; in experiment [2], 40.4 µg/mL; in experiment [3] it was 1.19 µg/mL; in experiment [4] it was 249 µg/mL; in experiment [5], 63.4 µg/mL (≈ 85.5 µM); in experiment [6], 11.9 µg/mL.

For the origin of these results see patent publication US20260198495A1, “BINARY INSECTICIDE COMPOSITION AND USE THEREOF” (SHENYANG SINOCHEM AGROCHEMICALS R & D CO., LTD., priority 2022, published 2026).
